These results are taken from article PMC6743424, “Phenolic acid phenethylesters and their corresponding ketones: Inhibition of 5‐lipoxygenase and stability in human blood and HepaRG cells” (Pharmacology Research & Perspectives, 2019).

Like-named read-outs stand apart in the source and are kept apart here.

Details of data set [1]: method as in PMID 17394337, PMID 15358316, PMID 19544289. Particulars: oral administration to rats; cited from earlier work.
In data set [2] the target is T1, 5‐LO (Homo sapiens, UniProt P09917).
T1 sequence (P09917 1-674): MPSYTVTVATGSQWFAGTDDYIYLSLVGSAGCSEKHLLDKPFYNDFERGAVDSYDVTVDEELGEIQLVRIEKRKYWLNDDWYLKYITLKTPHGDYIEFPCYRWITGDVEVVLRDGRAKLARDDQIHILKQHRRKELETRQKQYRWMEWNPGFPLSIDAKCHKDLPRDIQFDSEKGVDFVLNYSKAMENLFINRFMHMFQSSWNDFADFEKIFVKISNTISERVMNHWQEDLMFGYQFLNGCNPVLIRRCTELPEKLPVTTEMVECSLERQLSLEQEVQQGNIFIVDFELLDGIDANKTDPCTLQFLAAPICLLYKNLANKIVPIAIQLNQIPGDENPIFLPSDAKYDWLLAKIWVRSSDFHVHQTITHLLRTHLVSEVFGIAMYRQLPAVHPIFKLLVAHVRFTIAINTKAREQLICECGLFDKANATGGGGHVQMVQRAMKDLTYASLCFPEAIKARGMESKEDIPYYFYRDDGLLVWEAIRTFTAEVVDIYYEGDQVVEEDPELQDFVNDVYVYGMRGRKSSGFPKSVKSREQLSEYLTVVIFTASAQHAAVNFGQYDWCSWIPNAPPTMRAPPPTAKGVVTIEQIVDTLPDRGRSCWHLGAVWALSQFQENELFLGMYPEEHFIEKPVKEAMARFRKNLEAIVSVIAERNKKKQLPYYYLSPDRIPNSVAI
Further details: endogenous in cells; host or cells: human polymorphonuclear leukocytes isolated from heparinized blood; method as in PMID 22347509, PMID 28680195. As to conditions: read-out: IC50 of LT biosynthesis in whole blood; cited from earlier work.

Details of data set [3]: method as in PMID 17394337, PMID 15358316, PMID 19544289. As to conditions: carboxylesterase; cited from earlier work.
Data set [4] has as its target T1, 5‐LO. Further details: endogenous in cells; host or cells: human polymorphonuclear leukocytes isolated from heparinized blood; method as in PMID 22347509, PMID 28680195. Particulars: read-out: IC50 of LT biosynthesis in isolated human neutrophils; cited from earlier work.
The next data set relates to HepaRG cells. Nature of the data set: Kinetics of test compound disappearance in HepaRG cell culture (HPLC). It is filed as in vitro ADME, human. As to conditions: 30 µmol/L, 37°C; mean (95% confidence interval), four experiments. The method, then: Undifferentiated cryopreserved HepaRG cells (BioPredic International) were seeded in 12 or 24 well plates at 1.1 × 10^5 and 0.55 × 10^5 cells per well, respectively. Cells were cultured for 14 days in Williams E‐medium supplemented with 1% penicillin‐streptomycin (10 000 U/mL), 10% fœtal bovine serum (FBS), 50 mg/L hydrocortisone hemisuccinate, 5 mg/L insulin and 2 mmol/L Glutamax, and the medium was renewed every 2‐3 days. After 14 days, the culture medium was replaced by the same formulation as above supplemented with 2% dimethyl sulfoxide (DMSO) to induce differentiation. Cells were considered differentiated and ready for experiments after 14 days of differentiation (28 days after seeding).
Differentiated HepaRG cells, plated in 24 well plates, were washed with hepatocyte suspension medium (Williams E‐medium without phenol red, supplemented with 2 mmol/L Glutamax and […] HEPES) before addition of hepatocyte suspension medium (250 µL/well) containing (30 or 50 µmol/L) of the test compounds or their diluent. Cells were then incubated for 7.5, 15, 30, 60 or 90 minutes at 37°C after which the medium was removed.
In experiments where the test compounds incubated with HepaRG cells were to be measured, the cell layer was washed with 250 µL of hepatocyte suspension medium which was then pooled with the first medium. The mixture was then added to 250 µL of ice cold CH3OH:CH3CN (1:1, vol:vol) containing 10 µmol/L of phenethyl 3,4,5‐trimethoxycinnamate as an internal standard. The resulting solution was frozen at −80°C for 2 hour to precipitate any dissolved proteins, centrifuged at 1800g and the supernatant transferred to vials and stored at −20°C until HPLC analysis.
Figure 5 Kinetics of test compound disappearance in HepaRG cell culture. (A) HepaRG cells were incubated in 250 µL of hepatocyte suspension medium containing 30 µmol/L of test compounds for the indicated times at 37°C. Supernatants were removed and added to 250 µL of ice cold CH3OH:CH3CN (1:1 vol:vol) containing 10 µmol/L of phenethyl 3,4,5‐trimethoxycinnamate as an internal standard. The cell layer was washed with 250 µL of hepatocyte suspension medium and added to the above mixture. Samples were centrifuged at 1900g and the supernatants were collected for HPLC analysis as described in the Methods. Values are means ± SEM. (B) Calculated half‐lives of the test compounds in HepaRG cell cultures. Values are means (95% confidence interval). All data are from four independent experiments TEXT PRINTED IN THE PICTURE: (B) CAPE (2): Half-life (Minutes): 4.70 (4.42 - 5.02) | (B) 7: Half-life (Minutes): 6.42 (5.72 -7.31) | (B) 5: Half-life (Minutes): 3.71 (3.67-3.74) | (B) 8: Half-life (Minutes): 6.48 (6.01-7.04) | (B) 9: Half-life (Minutes): 4.38 (4.23 - 4.55) | (B) 10: Half-life (Minutes): 11.32 (10.21- 12.71)

Consider `O=C(/C=C/c1ccc(O)c(O)c1)OCCc1ccccc1` [CAPE (2), caffeic acid phenethyl ester, reference compound], for which, in data set [1], the “Major metabolite in urine” value was “caffeic acid”. For the same compound, the IC50 on 5‐LO [2] is 1800 nM; at 5‐LO [4], 500 nM. Moreover, the “Stability in rat plasma” value in data set [3] is “rapidly hydrolyzed to caffeic acid”. In the data set on HepaRG cells, the “Half-life in HepaRG cell cultures” value is listed as 4.70 (4.42 - 5.02) Minutes. As for `O=C(/C=C/c1cc(O)ccc1O)OCCc1ccccc1` [compound 5], the “Half-life in HepaRG cell cultures” value in the data set with HepaRG cells is given as 3.71 (3.67-3.74) Minutes. Still for that read-out and setting: the result for `O=C(/C=C/c1ccc(O)c(O)c1)CCCc1ccccc1` [compound 7] reads 6.42 (5.72 -7.31) Minutes; that for `O=C(/C=C/c1cc(O)ccc1O)CCc1ccccc1` [compound 8], 6.48 (6.01-7.04) Minutes. The same measure, in the same setting: the result for `COc1cc(/C=C/C(=O)CCc2ccccc2)cc(OC)c1O` [compound 10, sinapic acid phenethyl ketone] reads 11.32 (10.21- 12.71) Minutes.
